Data published in patent US20230304010A1, “COMPOSITIONS AND METHODS FOR TREATING VIRAL INFECTIONS” (priority 2020, published 2023).
Where “and” joins values, the source holds several entries; their conditions need not be identical. Equal entries are not always repeated. Where two headings read alike, the source gives them in different places. Ends that are not written are not given here.

Legend:
[1] = tested on: SARS-CoV-2 Nucleocapsid gene; type: cell-based
[2] = tested on: SARS-CoV-2; assay: siRNA/ADGN-100 complexes on SARS-CoV2 virus infection, Vero E6 cells; type: cell-based
[3] = tested on: Vero-6 cells; assay: Cellular toxicity of siRNA/ADGN-100 complexes on Vero-6 cells, CellTiter-Glo; settings: uninfected Vero-6 cells
[4] = Nanoparticle formation of peptides with ADGN-106: mean size and polydispersity (Zetasizer); type: physicochemical; settings: 25° C.; for Mean Size (nm): peptide/ADGN-106 complexes; for PI: polydispersity index of peptide/ADGN-106 complexes
Excerpt: We then tested the ability of the different peptides to form nanoparticle organization in the presence of ADGN-106 or ADGN-100 peptide. […] Peptides were complexed with 5 or 10 molar excess of ADGN-106.

[5] = Lung and liver toxicity studies after intratracheal instillation
Description: Single dose of peptides or peptide/siRNA complexes were administrated via intratracheal instillation (200 μg) (Table 20). Saline solution was used as negative control. Samples were collected 12, 24, 48 and 72 hr post administration.
The body weight of the mice were recorded before intratracheal instillation (day 0), at day1, day 2 and before being sacrificed (day 3). The lung, liver, heart, kidney and brain were collected at day 3 and organ index were determined.
Bronchoalveolar lavage (BAL) were performed 2 days after instillation. The percentage of the cells, the total protein and level of LDH in the BAL were analyzed.
AST and ALT levels in the plasma were assayed 2 days after instillation.

[6] = tested on: SARS-CoV-2
[7] = tested on: Vero E6 cells; settings: for Cell Viability (%): 0.5 µM
[8] = tested on: SARS-CoV-2; remark: listed apart in the source
[9] = tested on: SARS-CoV-2 ORF 8 gene; type: cell-based
[10] = tested on: SARS-CoV-2 ORF 3A gene; type: cell-based
[11] = target: ACE2:SARS-CoV-2 Spike interaction (UniProt P0DTC2+Q9BYF1); assay: biochemical; type: binding
Sequence of ACE2:SARS-CoV-2 Spike interaction (Q9BYF1 18-740, one chain of several): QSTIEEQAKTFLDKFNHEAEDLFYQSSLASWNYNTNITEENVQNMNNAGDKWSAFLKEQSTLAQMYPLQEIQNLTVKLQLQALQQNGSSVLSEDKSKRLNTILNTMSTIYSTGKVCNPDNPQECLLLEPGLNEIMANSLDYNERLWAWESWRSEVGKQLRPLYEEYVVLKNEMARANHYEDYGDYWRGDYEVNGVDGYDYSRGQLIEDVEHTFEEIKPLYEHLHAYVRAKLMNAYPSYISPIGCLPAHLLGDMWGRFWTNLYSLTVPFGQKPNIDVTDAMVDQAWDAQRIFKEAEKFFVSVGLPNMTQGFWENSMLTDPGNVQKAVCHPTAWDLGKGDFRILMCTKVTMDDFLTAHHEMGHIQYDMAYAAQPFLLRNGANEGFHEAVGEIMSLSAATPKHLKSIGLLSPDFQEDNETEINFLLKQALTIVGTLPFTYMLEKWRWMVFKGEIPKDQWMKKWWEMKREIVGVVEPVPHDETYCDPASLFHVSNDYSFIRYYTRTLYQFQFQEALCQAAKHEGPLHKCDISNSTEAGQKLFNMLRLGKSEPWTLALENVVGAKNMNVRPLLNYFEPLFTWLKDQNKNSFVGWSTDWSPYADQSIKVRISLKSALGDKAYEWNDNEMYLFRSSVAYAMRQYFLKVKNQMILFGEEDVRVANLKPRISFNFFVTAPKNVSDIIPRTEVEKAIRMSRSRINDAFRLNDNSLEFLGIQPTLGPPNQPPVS

[12] = target: SARS-CoV-2 Spike: ACE2 interaction (UniProt P0DTC2+Q9BYF1); assay: biochemical; type: binding
Sequence of SARS-CoV-2 Spike: ACE2 interaction (Q9BYF1 18-740, one chain of several): as above

[13] = in vitro; settings: uninfected Vero E6 cells
[14] = In vivo lung biodistribution after intratracheal instillation (fluorescence imaging, confocal microscopy); settings: administrated intratracheally
Description: To monitor DIVC-6 siRNA biodistribution, the siRNA was labelled with Cy-5.5.
In vivo lung biodistribution study was performed in healthy 4 weeks old male C57BL/6J mice. Single dose of peptides or peptide/siRNA complexes were administrated via intratracheal instillation (200 μg) (Table 20). The fluorescence was evaluated by non-invasive in vivo whole-body fluorescence imaging at T0, 1 h, 2 h, 6 h, 24 h, 48 h and 72 hr post injection. Fluorescence images were acquired with the IVIS kinetic system (PerkinElmer) (ex: 640±17 nm; em: 680±10 nm) and semi-quantitative data were obtained from the fluorescence images by using the Living image software (Caliper 2D).
Further analysis of the lung distribution of the different compounds was performed by confocal microscopy. Lungs were collected at 4 hr, 24 hr and 72 hr post administration, fixed in formaldehyde 4% in Glucose 5%. Tissues were stained with Mito tracker red and nucleus with Hoesch.

[15] = tested on: SARS-CoV-2 nucleocapside; type: cell-based; settings: read-out: IC50 of silencing response
[16] = tested on: SARS-CoV-2; assay: microbe, parasite or virus in culture
[17] = siRNA complexed with ADGN-100 at molar ratio 1/20, added to Vero-E6 immediately prior to virus infection, read-out: IC50
[18] = read-out: SARS-COV2 IC50, original strain, second Table 19, siRNA complexed at molar ratio 1/20
[19] = treatments added to Vero-E6 immediately prior to virus infection, Table 16
[20] = read-out: IC50 against SARS-CoV2 virus infection

For “GACAAGGCGTTCCAATTAACA (chemistry not given here) [DIVC-3]”, the IC50 [1] was 11.4 ± 5 nM, the IC50 [2, 17] was 84 ± 14 nM and the “TD50 (μM)” value [3] was 452 + 20 μM.

In the case of “Ac-N*GVEGFNK*Ava-LWRALWRLWRSLWRLLWK-NH2 [Seq17]”, the “Mean Size (nm)” value [4] is reported as 57 ± 4 nm, the PI [4] is reported as 0.17 and the “percentage of the cells in bronchoalveolar lavage” value ([5]; 2 days after instillation, versus saline) is reported as “slight increases of macrophages”. For the same compound, the “lung and liver toxicity associated to treatment” value ([5]; mouse, in vivo) was “no lung and liver toxicity”, the “Residual Infection (%)” value [6] was 20% and the “inhibition of viral infection” value [6] was “exhibit inhibition of viral infection”. For the same compound, the “reduction of anti-viral activity by pre-incubation” value [6] was 2 fold, the IC50 ([6]; read-out: D-IC50) was 21.5 ± 12 nM and the IC50 ([6]; read-out: IC50, SARS-COV2) was 31.5 ± 12 nM. The IC50 ([6]; read-out: P-IC50) was 57.2 ± 12 nM, the “TD50” value ([7]; uninfected Vero E6 cells) was 340 ± 28 µM and the “Cell Viability (%)” value ([7]; uninfected Vero E6 cells) was 85%. It also gave an IC50 [8, 18] of 31.5 ± 12 nM and an IC50 [8, 19] of 27.5 ± 11 nM.

With GTGGATGAGGCTGGTTCTAAA [DIVC-83] the IC50 [9] was 15.4 ± 3 nM.

“TGCAGAGTATAAACTTTGTAA (chemistry not given here) [DIVC-35]” showed an IC50 [10] of 125 ± 11 nM.

With “GCCTCTTCTCGTTCCTCATCA (chemistry not given here) [DIVC-8]” the IC50 [1] was 27.3 nM, the IC50 [2, 17] was 117 nM and the “TD50 (μM)” value [3] was 548 + 25 μM.

For “GTTGATGACCCGTGTCCTATT (chemistry not given here) [DIVC-81]”, the IC50 [9] was greater than 200 nM.

With `CC(=O)N[C@@H](CCC(=O)O)C(=O)N[C@@H](CCC(N)=O)C(=O)N[C@@H](C)C(=O)N[C@@H](CCCCN)C(=O)N[C@H](C(=O)N[C@@H](Cc1ccccc1)C(=O)N[C@@H](CC(C)C)C(=O)N[C@@H](CC(=O)O)C(=O)N[C@@H](CCCCN)C(=O)N[C@@H](Cc1ccccc1)C(=O)N[C@@H](CC(N)=O)C(=O)N[C@@H](Cc1c[nH]cn1)C(=O)N[C@@H](CCC(=O)O)C(=O)N[C@@H](C)C(=O)N[C@@H](CCC(=O)O)C(=O)N[C@@H](CC(=O)O)C(=O)N[C@@H](CC(C)C)C(=O)N[C@@H](Cc1ccccc1)C(=O)NCCCCCC(=O)N[C@@H](CC(C)C)C(=O)N[C@@H](Cc1c[nH]c2ccccc12)C(=O)N[C@@H](CCCNC(=N)N)C(=O)N[C@@H](C)C(=O)N[C@@H](CC(C)C)C(=O)N[C@@H](Cc1c[nH]c2ccccc12)C(=O)N[C@@H](CCCNC(=N)N)C(=O)N[C@@H](CC(C)C)C(=O)N[C@@H](Cc1c[nH]c2ccccc12)C(=O)N[C@@H](CCCNC(=N)N)C(=O)N[C@@H](CO)C(=O)N[C@@H](CC(C)C)C(=O)N[C@@H](Cc1c[nH]c2ccccc12)C(=O)N[C@@H](CCCNC(=N)N)C(=O)N[C@@H](CC(C)C)C(=O)N[C@@H](CC(C)C)C(=O)N[C@@H](Cc1c[nH]c2ccccc12)C(=O)N[C@@H](CCCCN)C(N)=O)[C@@H](C)O` [Seq33] the IC50 ([11]; IC50, SARS-COV2) was 18.4 ± 11 nM, the “folds more potent than SBP-1-ADGN-106/ADGN-106 complex” value [12] was 4 folds and the “folds more potent than SBP-1 coupled to ADGN-106” value [12] was 8 folds. The “folds more potent than SBP-1 peptide/ADGN-106 complex” value [12] was 35 folds, the “folds more potent than free SBP-1” value [12] was 14 folds and the IC50 ([12]; SARS-CoV-2 Spike:ACE2 IC50) was 178 ± 14 nM. For the same compound, the “Mean Size (nm)” value [4] was 45.9 ± 10 nm, the PI [4] was 0.24 and the “lung and liver toxicity associated to treatment” value ([5]; mouse, in vivo) was “no lung and liver toxicity”. For the same compound, the “tolerability upon intratracheal administration” value ([5]; mouse, in vivo) was “well tolerated”, the “Residual Infection (%)” value [6] was 15% and the “fold stronger anti-SARS-CoV-2 activity than hydroxychloroquine sulfate” value [6] was 250 fold. The “increase of potency by pre-incubation with SARS CoV-2 prior infection” value [6] was 2 factor, the “inhibition of viral infection” value [6] was “exhibit inhibition of viral infection” and the IC50 [8, 18] was 21.7 ± 8 nM. For the same compound, the IC50 [8, 19] was 22.9 ± 8 nM, the CC50 [13] was 510000 ± 31000 nM and the viability at 0.5 µM [13] was 94%. The “lung targeting and tissue penetration” value [14] was “significantly penetrate lung tissue”.

Work on “GCGTTGTTCGTTCTATGAAGA (chemistry not given here) [DIVC-84]” yielded an IC50 [9] of 113 ± 15 nM.

Compound “CAAGTCCTATTTCTGAACATG (chemistry not given here) [DIVC-33]” has an IC50 [10] of 57.2 ± 12 nM.

With “KWRSAGWRWRLWRVRSWSR [ADGN-100, reference compound]” the “TD50 (μM)” value [3] was 368 + 18 μM.

In the case of “Ac-S*YGFQPTNGV*-Ava-LWRALWRLWRSLWRLLWK-NH2 [Seq20]”, the “Mean Size (nm)” value [4] is reported as 68.1 ± 5 nm, the PI [4] is reported as 0.25 and the “Residual Infection (%)” value [6] is reported as 65%. The “inhibition of viral infection” value [6] was “exhibit inhibition of viral infection” and the “Cell Viability (%)” value ([7]; uninfected Vero E6 cells) was 91%.

With “Ac-G*FQPTNGVK*-Ava-LWRALWRLWRSLWRLLWK-NH2 [Seq21]” the “Mean Size (nm)” value [4] was 78.2 ± 7 nm, the PI [4] was 0.3 and the “Residual Infection (%)” value [6] was 79%. The “Cell Viability (%)” value ([7]; uninfected Vero E6 cells) was 78%.

For “Ac-G*NYNYLYRLFK*-Ava-LWRALWRLWRSLWRLLWK-NH2 [Seq15]”, the IC50 ([11]; read-out: ACE2:SARS-CoV-2 Spike IC50) was greater than 10000 nM, the IC50 ([12]; read-out: SARS-CoV-2 Spike:ACE2 IC50) was greater than 1000 nM and the “Mean Size (nm)” value [4] was 37.5 ± 5 nm. The PI [4] was 0.23, the “Residual Infection (%)” value [6] was 100% and the “Cell Viability (%)” value ([7]; uninfected Vero E6 cells) was 95%.

For GACCCGTGTCCTATTCACTTC [DIVC-82], the IC50 [9] was 21.7 ± 7 nM.

“GTGTAACTTCTTCAATTGTCA (chemistry not given here) [DIVC-32]” showed an IC50 [10] of 95.1 ± 7 nM.

With “Ac-T*NGVGYQPYK*-Ava-LWRALWRLWRSLWRLLWK-NH2 [Seq22]” the “blocked SARS-CoV-2 Spike: ACE2 interaction” value [12] was “blocked”, the “fold less potent than Seq20/Seq21” value [12] was 3.6 fold and the “Mean Size (nm)” value [4] was 54.4 ± 8 nm. The PI [4] was 0.24, the “Residual Infection (%)” value [6] was 40% and the “inhibition of viral infection” value [6] was “exhibit inhibition of viral infection”. The “reduction of virus infection” value [6] was 60%, the IC50 ([6]; read-out: D-IC50) was 124 ± 14 nM and the IC50 ([6]; read-out: P-IC50) was 145 ± 25 nM. The “TD50” value ([7]; uninfected Vero E6 cells) was 358 ± 27 µM and the “Cell Viability (%)” value ([7]; uninfected Vero E6 cells) was 87%.

“GAACATGTTACCTTCTTCATC (chemistry not given here) [DIVC-34]” showed an IC50 [10] of 12.3 ± 1 nM, an IC50 [2, 20] of roughly 1000 nM and an IC50 [2, 17] of 1450 nM. For the same compound, the “TD50 (μM)” value [3] was 589 + 17 μM.

“GTCCTATTCACTTCTATTCTA (chemistry not given here) [DIVC-85]” gave an IC50 [9] of 10.8 ± 2 nM, an IC50 [2, 20] of roughly 1000 nM and an IC50 [2, 17] of 1220 nM. The “TD50 (μM)” value [3] was 248 + 35 μM.

For “GGCCAAACTGTCACTAAGAAA (chemistry not given here) [DIVC-6]”, the IC50 [1] was 8.7 ± 2 nM, the “fold stronger anti-SARS-CoV-2 activity than hydroxychloroquine sulfate” value [2] was 64 fold and the IC50 [2, 17] was 68 ± 12 nM. The IC50 [15] was 11 nM and 8.7 nM, the IC50 [8, 18] was 68 nM and the “TD50 (μM)” value [3] was 652 + 24 μM.

For `CCN(CCO)CCCC(C)Nc1ccnc2cc(Cl)ccc12` (centres unmarked) [Hydroxy chloroquine], the “TD50” value ([7]; African green monkey) was 190 ± 28 µM, the IC50 ([16]; Severe acute respiratory syndrome coronavirus 2, Vero C1008, read-out: IC50 against SARS-CoV2 virus infection) was 4400 ± 215 nM and the IC50 ([16]; Severe acute respiratory syndrome coronavirus 2, Vero C1008, read-out: P-IC50 (nM)) was 4700 nM. It also gave an IC50 ([16]; Severe acute respiratory syndrome coronavirus 2, Vero, read-out: D-IC50 (nM)) of 4400 ± 215 nM.

GGTGAAATCAAGGATGCTACT [DIVC-31] gave an IC50 [10] of 18.4 ± 2 nM.
